Test system: KRAS-mutant PDC complex spheroid viability
Test: Anticancer human tumor 186277-243-T-J2-PDC patient-derived colon adenocarcinoma cell line growth inhibition [KRAS2]
Conditions: for IC50: curve of first compound; for viability, T/C: stronger effect = lower value
Outline: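 Combination screen of spheroid viability in tumor-cell co-cultures with endothelial (HUVEC) and mesenchymal stem cell stroma. Each agent was tested in half-log dilutions, topping at clinical Cmax or at 10 microM without a known Cmax.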

[1] = second compound 0.0316 µM, first compound 0.0316 µM
[2] = second compound 0.1 µM, first compound 0.0316 µM
[3] = second compound 0.316 µM, first compound 0.0316 µM
[4] = second compound 1 µM, first compound 0.0316 µM
[5] = second compound 3.16 µM, first compound 0.0316 µM
[6] = second compound 0.0316 µM, first compound 0.1 µM
[7] = second compound 0.0316 µM, first compound 0.316 µM
[8] = second compound 0.0316 µM, first compound 1 µM
[9] = second compound 0.0316 µM, first compound 3.16 µM
[10] = second compound 0.0316 µM, first compound 10 µM
[11] = second compound 0.1 µM, first compound 0.1 µM
[12] = second compound 0.1 µM, first compound 0.316 µM
[13] = second compound 0.1 µM, first compound 1 µM
[14] = second compound 0.1 µM, first compound 3.16 µM
[15] = second compound 0.1 µM, first compound 10 µM
[16] = second compound 0.316 µM, first compound 0.1 µM
[17] = second compound 0.316 µM, first compound 0.316 µM
[18] = second compound 0.316 µM, first compound 1 µM
[19] = second compound 0.316 µM, first compound 3.16 µM
[20] = second compound 0.316 µM, first compound 10 µM
[21] = second compound 1 µM, first compound 0.1 µM
[22] = second compound 1 µM, first compound 0.316 µM
[23] = second compound 1 µM, first compound 1 µM
[24] = second compound 1 µM, first compound 3.16 µM
[25] = second compound 1 µM, first compound 10 µM
[26] = second compound 3.16 µM, first compound 0.1 µM
[27] = second compound 3.16 µM, first compound 0.316 µM
[28] = second compound 3.16 µM, first compound 1 µM
[29] = second compound 3.16 µM, first compound 3.16 µM
[30] = second compound 3.16 µM, first compound 10 µM
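For viability, T/C in this document: viability read after seven days of compound exposure; 100% = DMSO vehicle-treated spheroids so lower means less viable.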

## CC(=O)Nc1cccc(-n2c(=O)n(C3CC3)c(=O)c3c(Nc4ccc(I)cc4F)n(C)c(=O)c(C)c32)c1 + C=CC(=O)N1CCN(c2nc(OCC3CCCN3C)nc3c2CCN(c2cccc4cccc(C)c24)C3)CC1CC#N
Second compound 0.0316 µM
  IC50: 0.000749 µM
Second compound 0.1 µM
  IC50: 0.000668 µM
Second compound 0.316 µM
  IC50: 0.00067 µM
Second compound 1 µM
  IC50: 0.000483 µM
Second compound 3.16 µM
  IC50: < 0.0001 µM
Second compound 0.0316 µM, first compound 0.0001 µM
  viability, T/C: 98.2%
Second compound 0.0316 µM, first compound 0.000316 µM
  viability, T/C: 115%
Second compound 0.0316 µM, first compound 0.001 µM
  viability, T/C: 30.9%
Second compound 0.0316 µM, first compound 0.00316 µM
  viability, T/C: 7.61%
Second compound 0.0316 µM, first compound 0.01 µM
  viability, T/C: 2.46%
[1]
  viability, T/C: 1.21%
Second compound 0.1 µM, first compound 0.0001 µM
  viability, T/C: 88.8%
Second compound 0.1 µM, first compound 0.000316 µM
  viability, T/C: 103%
Second compound 0.1 µM, first compound 0.001 µM
  viability, T/C: 25.1%
Second compound 0.1 µM, first compound 0.00316 µM
  viability, T/C: 6.76%
Second compound 0.1 µM, first compound 0.01 µM
  viability, T/C: 2.36%
[2]
  viability, T/C: 1.26%
Second compound 0.316 µM, first compound 0.0001 µM
  viability, T/C: 103%
Second compound 0.316 µM, first compound 0.000316 µM
  viability, T/C: 99%
Second compound 0.316 µM, first compound 0.001 µM
  viability, T/C: 23.8%
Second compound 0.316 µM, first compound 0.00316 µM
  viability, T/C: 5.26%
Second compound 0.316 µM, first compound 0.01 µM
  viability, T/C: 2.18%
[3]
  viability, T/C: 1.26%
Second compound 1 µM, first compound 0.0001 µM
  viability, T/C: 105%
Second compound 1 µM, first compound 0.000316 µM
  viability, T/C: 74%
Second compound 1 µM, first compound 0.001 µM
  viability, T/C: 8.66%
Second compound 1 µM, first compound 0.00316 µM
  viability, T/C: 2.88%
Second compound 1 µM, first compound 0.01 µM
  viability, T/C: 1.12%
[4]
  viability, T/C: 0.75%
Second compound 3.16 µM, first compound 0.0001 µM
  viability, T/C: 0.32%
Second compound 3.16 µM, first compound 0.000316 µM
  viability, T/C: 0.18%
Second compound 3.16 µM, first compound 0.001 µM
  viability, T/C: 0.13%
Second compound 3.16 µM, first compound 0.00316 µM
  viability, T/C: 0.12%
Second compound 3.16 µM, first compound 0.01 µM
  viability, T/C: 0.11%
[5]
  viability, T/C: 0.19%

## COC(=O)c1ccc2c(C(=Nc3ccc(N(C)C(=O)CN4CCN(C)CC4)cc3)c3ccccc3)c(O)[nH]c2c1 + C=CC(=O)N1CCN(c2nc(OCC3CCCN3C)nc3c2CCN(c2cccc4cccc(C)c24)C3)CC1CC#N
Second compound 0.0316 µM
  IC50: 1.89 µM
Second compound 0.1 µM
  IC50: 0.732 µM
Second compound 0.316 µM
  IC50: 0.949 µM
Second compound 1 µM
  IC50: 0.446 µM
Second compound 3.16 µM
  IC50: < 0.0316 µM
[1]
  viability, T/C: 103%
[6]
  viability, T/C: 104%
[7]
  viability, T/C: 113%
[8]
  viability, T/C: 85.3%
[9]
  viability, T/C: 21.7%
[10]
  viability, T/C: 13.4%
[2]
  viability, T/C: 91.5%
[11]
  viability, T/C: 92.3%
[12]
  viability, T/C: 103%
[13]
  viability, T/C: 33%
[14]
  viability, T/C: 12.6%
[15]
  viability, T/C: 7.16%
[3]
  viability, T/C: 97.8%
[16]
  viability, T/C: 109%
[17]
  viability, T/C: 102%
[18]
  viability, T/C: 47.5%
[19]
  viability, T/C: 7.39%
[20]
  viability, T/C: 5.61%
[4]
  viability, T/C: 105%
[21]
  viability, T/C: 86.3%
[22]
  viability, T/C: 65.3%
[23]
  viability, T/C: 20.9%
[24]
  viability, T/C: 1.39%
[25]
  viability, T/C: 1.01%
[5]
  viability, T/C: 0.29%
[26]
  viability, T/C: 0.26%
[27]
  viability, T/C: 0.23%
[28]
  viability, T/C: 0.11%
[29]
  viability, T/C: 0.77%
[30]
  viability, T/C: 0.09%

## COc1cc(Nc2ncc3c(n2)-c2ccc(Cl)cc2C(c2c(F)cccc2OC)=NC3)ccc1C(=O)O + C=CC(=O)N1CCN(c2nc(OCC3CCCN3C)nc3c2CCN(c2cccc4cccc(C)c24)C3)CC1CC#N
Second compound 0.0316 µM
  IC50: < 0.0316 µM
Second compound 0.1 µM
  IC50: < 0.0316 µM
Second compound 0.316 µM
  IC50: < 0.0316 µM
Second compound 1 µM
  IC50: < 0.0316 µM
Second compound 3.16 µM
  IC50: < 0.0316 µM
[1]
  viability, T/C: 34%
[6]
  viability, T/C: 32.2%
[7]
  viability, T/C: 30%
[8]
  viability, T/C: 34.5%
[9]
  viability, T/C: 43.3%
[10]
  viability, T/C: 48%
[2]
  viability, T/C: 34.2%
[11]
  viability, T/C: 31.7%
[12]
  viability, T/C: 30.3%
[13]
  viability, T/C: 31.2%
[14]
  viability, T/C: 42.8%
[15]
  viability, T/C: 44.2%
[3]
  viability, T/C: 34.3%
[16]
  viability, T/C: 28.6%
[17]
  viability, T/C: 27.4%
[18]
  viability, T/C: 30.2%
[19]
  viability, T/C: 40.2%
[20]
  viability, T/C: 42.5%
[4]
  viability, T/C: 28%
[21]
  viability, T/C: 26.4%
[22]
  viability, T/C: 25.9%
[23]
  viability, T/C: 25.3%
[24]
  viability, T/C: 29.5%
[25]
  viability, T/C: 21.6%
[5]
  viability, T/C: 0.25%
[26]
  viability, T/C: 0.19%
[27]
  viability, T/C: 0.19%
[28]
  viability, T/C: 0.17%
[29]
  viability, T/C: 0.69%
[30]
  viability, T/C: 0.19%

## O=C(c1cc(Cc2n[nH]c(=O)c3ccccc23)ccc1F)N1CCN(C(=O)C2CC2)CC1 + C=CC(=O)N1CCN(c2nc(OCC3CCCN3C)nc3c2CCN(c2cccc4cccc(C)c24)C3)CC1CC#N
Second compound 0.0316 µM
  IC50: 1.17 µM
Second compound 0.1 µM
  IC50: 3.53 µM
Second compound 0.316 µM
  IC50: 8.7 µM
Second compound 1 µM
  IC50: 7.63 µM
Second compound 3.16 µM
  IC50: < 0.0316 µM
[1]
  viability, T/C: 105%
[6]
  viability, T/C: 107%
[7]
  viability, T/C: 96.2%
[8]
  viability, T/C: 53.1%
[9]
  viability, T/C: 30.7%
[10]
  viability, T/C: 26.6%
[2]
  viability, T/C: 104%
[11]
  viability, T/C: 119%
[12]
  viability, T/C: 121%
[13]
  viability, T/C: 114%
[14]
  viability, T/C: 51.6%
[15]
  viability, T/C: 34.3%
[3]
  viability, T/C: 113%
[16]
  viability, T/C: 111%
[17]
  viability, T/C: 116%
[18]
  viability, T/C: 118%
[19]
  viability, T/C: 72.2%
[20]
  viability, T/C: 47%
[4]
  viability, T/C: 108%
[21]
  viability, T/C: 107%
[22]
  viability, T/C: 107%
[23]
  viability, T/C: 107%
[24]
  viability, T/C: 77.3%
[25]
  viability, T/C: 41.6%
[5]
  viability, T/C: 0.23%
[26]
  viability, T/C: 0.3%
[27]
  viability, T/C: 0.47%
[28]
  viability, T/C: 0.26%
[29]
  viability, T/C: 0.28%
[30]
  viability, T/C: 0.22%
